Test system: prenyl-protein transferases
Assay: the disclosed assays (not specified which)

**Q.** Which “activity in the disclosed assays” value does the source give for Cc1cccc(Oc2cc(Cn3c(CN4CCN(C(=O)OC(C)(C)C)CC4)cnc3C)ccc2C#N)n1 [Example 1 Step G, 1-(tert-butoxycarbonyl)-4-[1-(3-((6-methyl-2-pyridyl)oxy)-4-cyanobenzyl)-2-methyl-5-imidazolylmethyl]piperazine] here?
**A.** active

From US20020052363A1, “Inhibitors of prenyl-protein transferase” (priority 2000, published 2002)
